For 19 molecules, LC retention time results are on record in the RepoRT retention time repository (doi:10.1016/j.foodchem.2021.129757).

One data set is described as follows: RP, Waters ACQUITY UPLC HSS T3, 100 × 2.1 mm, 50 °C; A: water + 0.1% formic acid, pH 3; B: 30% methanol + 70% acetonitrile + 0.1% formic acid, pH 3; gradient (min/%B) 0/5 1/8 2/15 3/40 4/70 4.5/100 5/100 6.4/100 6.6/5 6.8/5 7/5. The conditions noted are these: stereoisomer not certain.
`C[N+]1(C)CCCC1C(=O)[O-]` (stereo unspecified) [Stachydrine]: the LC retention time came to 0.545 min.

For the molecule `OC1C(O)C(O)C(O)C(O)C1O` (stereo unspecified) [Myo-inositol], the LC retention time stood at 0.461 min.

The next data set can be described thus: RP, Waters ACQUITY UPLC BEH C18, 100 × 2.1 mm, 1.7 µm, 65 °C, 0.4 mL/min, estimated dead time 0.55 min; A: water + 0.1% formic acid, pH 3; B: 80% acetonitrile + 20% acetone + 0.1% formic acid, pH 3; gradient (min/%B) 0/0 5/100 5.5/0 6/0. Conditions: stereoisomer not certain.
Consider `Cc1c(C)c2c(c(C)c1O)CCC(C)(CCCC(C)CCCC(C)CCCC(C)C)O2` (stereo not drawn) [alpha-tocopherol], for which the LC retention time is 5.55 min.

`COc1cc(C=O)cc(OC)c1O` [Syringaldehyde]: the LC retention time is 2.11 min.

A short description of another data set: RP, Waters ACQUITY UPLC BEH Shield RP18, 100 × 2.1 mm, 1.7 µm, 30 °C, 0.6 mL/min, estimated dead time 0.37 min; A: water + 0.1% formic acid, pH 3; B: acetonitrile + 0.1% formic acid, pH 3; gradient (min/%B) 0/0 2/0 7/10 22/95 22.1/0 26/0. Conditions: stereoisomer not certain.
Turning to `COc1ccc(-c2cc(=O)c3c(OC)c(OC)c(OC)c(OC)c3o2)cc1` [Tangeretin], the LC retention time is 16.9 min.

`Cc1c(C)c2c(c(C)c1O)CCC(C)(CCCC(C)CCCC(C)CCCC(C)C)O2` (stereo not drawn) [alpha-tocopherol]: the LC retention time is 18.1 min.

In the case of `C[N+]1(C)CCCC1C(=O)[O-]` (stereo unspecified) [Stachydrine], the LC retention time was 0.65 min.

For the molecule `OC1C(O)C(O)C(O)C(O)C1O` (stereo unspecified) [Myo-inositol], the LC retention time is 0.58 min.

The nature of the next data set: RP, Phenomenex Luna Omega Polar C18, 100 × 2.1 mm, 1.6 µm, 40 °C, 0.5 mL/min, estimated dead time 0.44 min; A: water + 0.5% formic acid; B: acetonitrile + 0.5% formic acid; gradient (min/%B) 0/5 3/50 3.1/100 5/100 5.1/5 7/5. Conditions: stereoisomer not certain.
Consider `COc1ccc(-c2cc(=O)c3c(OC)c(OC)c(OC)c(OC)c3o2)cc1` [Tangeretin], for which the LC retention time is 3.93 min.

For `Cc1c(C)c2c(c(C)c1O)CCC(C)(CCCC(C)CCCC(C)CCCC(C)C)O2` (stereo not drawn) [alpha-tocopherol], the LC retention time is 4.03 min.

In the case of `CCC(CCC(C)C1CCC2C3CC=C4CC(O)CCC4(C)C3CCC12C)C(C)C` (stereo not drawn) [beta-sitosterol], the LC retention time is 3.92 min.

`C[N+]1(C)CCCC1C(=O)[O-]` (stereo unspecified) [Stachydrine]: the LC retention time is 0.61 min.

In the case of `OC1C(O)C(O)C(O)C(O)C1O` (stereo unspecified) [Myo-inositol], the LC retention time was 0.54 min.

A short description of a further data set: RP, Merck LiChrospher RP-18, 250 × 4 mm, 5 µm, 35 °C, 0.3 mL/min, estimated dead time 6.7 min; A: water + 0.5% formic acid; B: acetonitrile + 0.5% formic acid; gradient (min/%B) 0/5 10/5 30/15 45/20 65/20 95/54 110/63 115/5 135/5. Conditions: stereoisomer not certain.
With `O=Cc1ccc(CO)o1` [5-Hydroxymethylfurfural], the LC retention time was 24.2 min.

In the case of `COc1cc(-c2oc3cc(O)cc(O)c3c(=O)c2OC2OC(CO)C(O)C(O)C2O)ccc1O` (stereo unspecified) [Isorhamnetin-3-O-glucoside], the LC retention time is 78.5 min.

As for `CCOC(=O)c1cc(O)c(O)c(O)c1` [Ethyl Gallate], the LC retention time was 53.9 min.

Consider `COc1cc(C=O)cc(OC)c1O` [Syringaldehyde], for which the LC retention time was 58.1 min.

Take `CC1OC(OCC2OC(Oc3cc4c(O)cc(O)cc4[o+]c3-c3ccc(O)c(O)c3)C(O)C(O)C2O)C(O)C(O)C1O` (stereo unspecified) [Cyanidin-3-O-rutinoside]: the LC retention time was 49.6 min.

Turning to `COc1cc(-c2oc3cc(O)cc(O)c3c(=O)c2OC2OC(COC3OC(C)C(O)C(O)C3O)C(O)C(O)C2O)ccc1O` (stereo unspecified) [Isorhamnetin-3-O-rutinoside], the LC retention time is 71.3 min.

Consider `OCCc1ccc(O)cc1` [Tyrosol], for which the LC retention time is 38.7 min.

As to `COc1cc(C=CC(=O)O)cc(OC)c1OC` [o-Methylsinapic acid], the LC retention time is 90.1 min.

Consider `CCOC(=O)C=Cc1ccc(O)c(O)c1` [Ethyl Caffeate], for which the LC retention time is 92.7 min.

`O=C(O)CC(O)C(=O)O` (stereo unspecified) [malic acid]: the LC retention time was 8.06 min.

For `CCC=CCC1C(=O)CCC1CC(=O)O` (stereo unspecified) [Jasmonic Acid], the LC retention time was 96.2 min.

The nature of another data set: RP, Waters ACQUITY UPLC BEH Shield RP18, 150 × 2.1 mm, 1.7 µm, 40 °C, 0.4 mL/min, estimated dead time 0.83 min; A: water + 0.1% formic acid, pH 3; B: acetonitrile + 0.1% formic acid, pH 3; gradient (min/%B) 0/0 30/50 31/100 37/100 37.1/0. Conditions: stereoisomer not certain.
In the case of `COc1ccc(-c2cc(=O)c3c(OC)c(OC)c(OC)c(OC)c3o2)cc1` [Tangeretin], the LC retention time was 26.7 min.

For `CC1OC(OCC2OC(Oc3cc4c(O)cc(O)cc4[o+]c3-c3ccc(O)c(O)c3)C(O)C(O)C2O)C(O)C(O)C1O` (stereo unspecified) [Cyanidin-3-O-rutinoside], the LC retention time was 6.43 min.

Turning to `COc1cc(C=CC(=O)O)cc(OC)c1OC` [o-Methylsinapic acid], the LC retention time is 15.8 min.

Take `C[N+]1(C)CCCC1C(=O)[O-]` (stereo unspecified) [Stachydrine]: the LC retention time is 1.06 min.

`OC1C(O)C(O)C(O)C(O)C1O` (stereo unspecified) [Myo-inositol]: the LC retention time is 1.01 min.

The next data set is described as follows: RP, 150 × 2.1 mm, 2.6 µm, 40 °C, 0.35 mL/min, estimated dead time 0.94 min; A: water + 0.1% formic acid, pH 3; B: acetonitrile + 0.1% formic acid, pH 3; gradient (min/%B) 0/0 1/0 12.5/100 14/100 14.2/0 15/0. The conditions noted are these: stereoisomer not certain.
As to `COc1cc(C=O)cc(OC)c1O` [Syringaldehyde], the LC retention time was 5.74 min.

Regarding `Oc1cc(O)c2c(c1)OC(c1cc(O)c(O)c(O)c1)C(O)C2` (single isomer, unassigned; (-)) [(-)-Epigallocatechin], the LC retention time was 4.2 min.

In the case of `COc1cc(-c2oc3cc(O)cc(O)c3c(=O)c2OC2OC(COC3OC(C)C(O)C(O)C3O)C(O)C(O)C2O)ccc1O` (stereo unspecified) [Isorhamnetin-3-O-rutinoside], the LC retention time is 5.8 min.

As for `COc1cc(C=CC(=O)O)cc(OC)c1OC` [o-Methylsinapic acid], the LC retention time is 7.02 min.

Take `O=c1c(OC2OC(CO)C(O)C(O)C2O)c(-c2ccc(OC3OC(CO)C(O)C(O)C3O)c(O)c2)oc2cc(O)cc(O)c12` (stereo unspecified) [Quercetin-3,4'-diglucoside]: the LC retention time is 5.13 min.

A further data set can be described thus: RP, Phenomenex Synergi Hydro-RP, 150 × 2 mm, 4 µm, 30 °C, 0.5 mL/min, estimated dead time 0.6 min; A: water + 0.1% formic acid, pH 3; B: acetonitrile + 0.1% formic acid, pH 3; gradient (min/%B) 0/5 1/5 35/45 40/100 45/100. The conditions noted are these: stereoisomer not certain.
Turning to `COc1ccc(-c2cc(=O)c3c(OC)c(OC)c(OC)c(OC)c3o2)cc1` [Tangeretin], the LC retention time was 36.5 min.

`CC1CCC2(C(=O)O)CCC3(C)C(=CCC4C5(C)CCC(O)C(C)(C)C5CCC43C)C2C1C` (stereo unspecified) [ursolic acid]: the LC retention time is 42 min.
